{"source": "patent US6576780B1", "about": "“Hydroxyamidino derivatives useful as nitric oxide synthase inhibitors” (GD Searle & Company, priority 1996, dated 2003)", "key": {"RAW 264.7 cells": {"test_system": "RAW 264.7 cells", "assay": "Raw cell nitrite assay", "type": "cell-based", "conditions": "Mus musculus, RAW264.7, cultured RAW 264.7 cells, LPS-induced", "protocol": "RAW 264.7 cells are plated to confluency on a 96-well tissue culture plate grown overnight (17 h) in the presence of LPS to induce NOS. A row of 3-6 wells were left untreated and served as controls for subtraction of nonspecific background. The media was removed from each well and the cells are washed twice with Kreb-Ringers-Hepes (25 mM, pH 7.4) with 2 mg/ml glucose. The cells are then placed on ice and incubated with […] of buffer containing L-arginine (30 mM) +/− inhibitors for 1 h. The assay is initiated by warming the plate to 37° C. in a water bath for 1 h. Production of nitrite by intracellular iNOS is linear with time. To terminate the cellular assay, the plate of cells is placed on ice and the nitrite-containing buffer removed and analyzed for nitrite using a previously published fluorescent determination for nitrite. T. P. Misko et al, Analytical Biochemistry, 214, 11-16 (1993). All values are the average of triplicate wells and are compared to a background-subtracted induced set of cells (100% value)."}, "[1]": {"target": "T1, rat brain constitutive NOS (rnNOS) (Rattus norvegicus, UniProt P29476)", "T1 construct": "was prepared from an extract of rat cerebellum; from tissue; host or cells: rat cerebellum", "assay": "Citrulline assay for nitric oxide synthase, rnNOS", "type": "biochemical", "conditions": "partially purified enzyme from rat cerebellum", "protocol": "(§1) NOS activity was measured by monitoring the conversion of L-[2,3-^3H]-arginine to L-[2,3- H]-citrulline. Mouse inducible NOS (miNOS) was prepared from an extract of LPS-treated mouse RAW 264.7 cells and rat brain constitutive NOS (rnNOS) was prepared from an extract of rat cerebellum. Both preparations were partially purified by DEAE-Sepharose chromatography. Enzyme (10 μL) was added to 40 μL of 50 mM Tris (pH 7.6) and the reaction initiated by the addition of 50 μL of a solution containing 50 mM Tris (pH 7.6), 2.0 mg/mL bovine serum albumin, 2.0 mM DTT, 4.0 mM CaCl2, 20 μM FAD, 100 &M tetrahydrobiopterin, 2.0 mM NADPH and 60 μM L-arginine containing 0.9 μCi of L-[2,3-^3H]-arginine. For constitutive NOS, calmodulin was included at a final concentration of 40 nM. Following incubation at 37° C. for 15 minutes, the reaction was terminated by addition of 300 μL cold buffer containing 10 mM EGTA, 100 mM HEPES (pH 5.5) and 1.0 mM L-citrulline. The [^3H]-citrulline was separated by chromatography on Dowex 50W X-8 cation exchange resin and radioactivity quantified with a liquid scintillation counter."}, "[2]": {"test_system": "plasma nitrites induced by endotoxin (LPS)", "assay": "In vivo low-endotoxin (Low Dose LPS) assay", "parameters": "species or system rat", "conditions": "rats, LPS i.p., plasma nitrites 5 hours post-treatment", "protocol": "Rats were treated with an intraperitoneal injection of 10 mg/kg of endotoxin (LPS) with or without oral administration of the nitric oxide synthase inhibitors. Plasma nitrites were measured 5 hours post-treatment."}, "[3]": {"target": "recombinant human inducible NOS (hiNOS) (Homo sapiens, UniProt P35228)", "assay": "Human in vitro enzyme data, hiNOS", "type": "biochemical"}, "[4]": {"target": "T2, mouse inducible NOS (miNOS) (Mus musculus, UniProt P29477)", "T2 construct": "prepared from an extract of LPS-treated mouse RAW 264.7 cells; endogenous in cells; host or cells: LPS-treated mouse RAW 264.7 cells", "assay": "Citrulline assay for nitric oxide synthase, miNOS", "type": "biochemical", "conditions": "partially purified enzyme from LPS-treated RAW 264.7 cells", "protocol": "as §1"}, "[5]": {"target": "recombinant human endothelial constitutive NOS (hecNOS) (Homo sapiens, UniProt P29474)", "assay": "Human in vitro enzyme data, hecNOS", "type": "biochemical"}, "[6]": {"target": "recombinant human neuronal constitutive NOS (hncNOS) (Homo sapiens, UniProt P29475)", "assay": "Human in vitro enzyme data, hncNOS", "type": "biochemical"}}, "note": "Where a name gives a salt, the structure may show the parent alone."}
{"smiles": "C/C(=N\\O)NCCCC[C@H](N)C(=O)O", "note": "[Example 1, N^6-[1-(Hydroxyimino)ethyl]-L-lysine, Dihydrochloride]", "values": [{"measurement": "IC50", "setting": "RAW 264.7 cells", "result": 28, "unit": "µM"}, {"measurement": "IC50", "setting": "[1]", "result": 1470, "unit": "µM"}, {"measurement": "Inhibition of LPS-induced plasma nitrite", "setting": "[2]; 0.1 mg/kg/day p.o.", "result": 0, "unit": "% inh."}, {"measurement": "Inhibition of LPS-induced plasma nitrite", "setting": "[2]; 1 mg/kg/day p.o.", "result": 54, "unit": "% inh."}, {"measurement": "Inhibition of LPS-induced plasma nitrite", "setting": "[2]; 10 mg/kg/day p.o.", "result": 97, "unit": "% inh."}, {"measurement": "IC50", "setting": "[3]", "result": 154, "unit": "µM"}, {"measurement": "IC50", "setting": "[4]", "result": 77, "unit": "µM"}, {"measurement": "IC50", "setting": "[5]", "result": 1470, "unit": "µM"}, {"measurement": "IC50", "setting": "[6]", "result": 907, "unit": "µM"}]}
